Experimental findings from patent US4159328A, “Tetrahydro-1,3,5-thiadiazin-4-one derivative” (Nihon Nohyaku Co., Ltd., priority 1977, dated 1979) are described below.

By mortality is commonly meant the percentage killed. Higher therefore signals fewer survivors.

The subject of assay [1] is larvae of brown planthopper (Nilaparvata lugens Stahl). Kind of assay: Test Example 1: insecticidal activity against larvae of brown planthopper. Particulars: 120 h, third-instar larvae, 25° C., 5 days after treatment. The assay is classed as in vivo. Here is the method:
Insecticidal activity against larvae of brown planthopper (Nilaparvata lugens Stahl).
Testing method: Five rice seedlings of the 1.5 leaf age were dipped in a test composition of 400 ppm concentration for 30 seconds. After air-drying, the seedlings were placed in a glass tube containing 1 ml of water and infested with five third-instar larvae of brown planthopper. The glass tube was left standing in a constant temperature cabinet at 25° C. and 5 or 7 days after the treatment, dead-and-survival was observed. Mortality was calculated from the results of 3-replication test.

In assay [2] the test system is two-spotted spider mite (Tetranychus urticae Koch). Kind of assay: Test Example 3: activity to two-spotted spider mite. The assay is classed as in vivo. Particulars: 120 h, 1,000 ppm, 5 days after treatment. An excerpt: Activity to two-spotted spider mite (Tetranychus urticae Koch).
Testing method: Two-spotted spider mites were set free on the pot-planted soybean in a greenhouse. On the next day, a test composition of 1,000 ppm concentration was sprayed over the soybean by means of a spray gun. Two days or five days after the treatment, dead-and-survival was inspected to calculate the mortality.

The compound `CC(C)(C)N=C1SCN(c2ccccc2)C(=O)N1Cc1ccccc1` [Compound 159] yielded a mortality at 400 ppm in assay [1] of 80%.
Same read-out and setting: the same measure for `CC(C)N=C1SCN(c2ccccc2)C(=O)N1c1ccc(F)cc1` [Compound 167]: 70%; for `COCCN1C(=O)N(c2ccccc2)CSC1=NC(C)C` [Compound 179]: 90%; for `CCOCCN1C(=O)N(c2ccccc2)CSC1=NC(C)(C)C` [Compound 182]: 70%.
Same read-out and setting: the same measure for `COCCN1C(=O)N(c2cccc(Cl)c2)CSC1=NC(C)(C)C` [Compound 229]: 100%.
As to `CC(C)N=C1SCN(c2cccc(Cl)c2)C(=O)N1C1CCCC1` [Compound 233], the mortality at 1000 ppm in assay [2] was 100%. In assay [1], the mortality at 400 ppm was found to be 100%.
Take `CCCCCCN1C(=O)N(c2cccc(Cl)c2)CSC1=NC(C)C` [Compound 234]: in assay [1], the mortality at 400 ppm turned out to be 100%.
With `CC(C)N=C1SCN(c2cccc(Cl)c2)C(=O)N1C(C)c1ccccc1` (stereo not shown) [Compound 237], the mortality at 1000 ppm in assay [2] worked out at 100%. The mortality at 400 ppm in assay [1] is 100%.
`CCN1C(=O)N(c2ccccc2Cl)CSC1=NC(C)(C)C` [Compound 241] returned a mortality at 1000 ppm in assay [2] of 70%. The mortality at 400 ppm in assay [1] amounted to 100%.
In the case of `C=CCN1C(=O)N(c2ccccc2Cl)CSC1=NC(C)C` [Compound 242], the mortality at 1000 ppm in assay [2] turned out to be 70%. In assay [1], the mortality at 400 ppm was found to be 100%.
As to `C=CCN1C(=O)N(c2ccccc2Cl)CSC1=NC(C)(C)C` [Compound 243], the mortality at 400 ppm in assay [1] was determined as 100%.
The same measure, in the same setting: then `CC(C)N1C(=O)N(c2ccccc2Cl)CSC1=NC1CCCCC1` [Compound 252, 2-Cyclohexylimino-3-isopropyl-5-(o-chlorophenyl)-tetrahydro-1,3,5-thiadiazin-4-one], with 100%; and `CCC(C)N=C1SCN(c2ccccc2Cl)C(=O)N1CC(C)C` (stereo not shown) [Compound 253], with 80%.
In assay [2], `CC(C)N=C1SCN(c2ccccc2Cl)C(=O)N1Cc1ccco1` [Compound 255] had a mortality at 1000 ppm of 100%. In addition, in assay [1], the mortality at 400 ppm was found to be 100%.
`COCCCN1C(=O)N(c2ccccc2Cl)CSC1=NC(C)(C)C` [Compound 258]: the mortality at 1000 ppm in assay [2] stood at 100%. Also, the mortality at 400 ppm in assay [1] amounted to 100%.
In the case of `CCN=C1SCN(c2cccc(C(F)(F)F)c2)C(=O)N1CC` [Compound 260], the mortality at 1000 ppm in assay [2] was 100%. Also, the mortality at 400 ppm in assay [1] worked out at 60%.
In turn, `CC(C)N=C1NC(=O)N(c2ccc(F)cc2)CS1` [Compound 275] showed a mortality at 400 ppm in assay [1] of 100%.
On the same count and under the same terms, the same measure for `CC(C)(C)N=C1NC(=O)N(c2ccc(F)cc2)CS1` [Compound 276]: 100%.
Consider `C=CCN=C1SCN(c2ccc(F)cc2)C(=O)N1C` [Compound 289], for which the mortality at 1000 ppm in assay [2] came to 100%. In addition, the mortality at 400 ppm in assay [1] was found to be 100%.
Regarding `CC(C)N=C1SCN(c2ccc(Br)cc2)C(=O)N1C(C)C` [Compound 293, 2-Isopropylimino-3-isopropyl-5-(p-bromophenyl)-tetrahydro-1,3,5-thiadiazin-4-one], the mortality at 1000 ppm in assay [2] stood at 100%. For the same compound, the mortality at 400 ppm in assay [1] turned out to be 100%.
In turn, `CC(C)N1C(=O)N(c2ccc(Br)cc2)CSC1=NC(C)(C)C` [Compound 294] showed a mortality at 1000 ppm in assay [2] of 100%. The same compound registered a mortality at 400 ppm in assay [1] of 100%.
In turn, `CCC(C)N1C(=O)N(c2ccc(Br)cc2)CSC1=NC(C)(C)C` (stereo not shown) [Compound 295] returned a mortality at 1000 ppm in assay [2] of 100%. This compound also displayed a mortality at 400 ppm in assay [1] of 100%.
Compound `Cc1ccccc1N1CSC(=NC(C)C)N(C)C1=O` [Compound 297] showed a mortality at 1000 ppm in assay [2] of 100%. This compound also gave a mortality at 400 ppm in assay [1] of 100%.
In assay [2], `CCN=C1SCN(c2ccccc2C)C(=O)N1CC` [Compound 298] had a mortality at 1000 ppm of 100%.
Take `CCN1C(=O)N(c2ccccc2C)CSC1=NC(C)(C)C` [Compound 299]: the mortality at 1000 ppm in assay [2] is 100%. The mortality at 400 ppm in assay [1] was 100%.
Compound `C=CCN1C(=O)N(c2ccccc2C)CSC1=NC(C)(C)C` [Compound 300] had a mortality at 1000 ppm in assay [2] of 90%. The same compound had a mortality at 400 ppm in assay [1] of 100%.
The compound `CCCCCCN1C(=O)N(c2ccccc2C)CSC1=NC(C)C` [Compound 304] had a mortality at 1000 ppm in assay [2] of 100%. Besides, the mortality at 400 ppm in assay [1] came to 100%.
`Cc1ccccc1N1CSC(=NC2CCCCC2)N(C(C)C)C1=O` [Compound 305] gave a mortality at 1000 ppm in assay [2] of 70%. Besides, the mortality at 400 ppm in assay [1] was 95%.
In turn, `CCc1ccc(N2CSC(=NC(C)C)N(C(C)C)C2=O)cc1` [Compound 332] registered a mortality at 400 ppm in assay [1] of 100%.
In the case of `CCc1ccc(N2CSC(=NC(C)(C)C)N(C(C)CC)C2=O)cc1` (stereo not shown) [Compound 334], in assay [1], the mortality at 400 ppm is 100%.
As for `CCc1ccccc1N1CSC(=NC)N(C)C1=O` [Compound 335], in assay [1], the mortality at 400 ppm turned out to be 80%.
The compound `C=CCN1C(=O)N(c2ccccc2CC)CSC1=NC(C)C` [Compound 336] registered a mortality at 1000 ppm in assay [2] of 100%. The same compound came in with a mortality at 400 ppm in assay [1] of 100%.
For the compound `CCc1ccccc1N1CSC(=NC(C)C)N(C(C)C)C1=O` [Compound 337], the mortality at 1000 ppm in assay [2] amounted to 100%. The compound also returned a mortality at 400 ppm in assay [1] of 100%.
With `CCc1ccccc1N1CSC(=NC(C)(C)C)N(C(C)C)C1=O` [Compound 338], the mortality at 400 ppm in assay [1] is 100%.
Same read-out and setting: then `CCc1ccccc1N1CSC(=NC(C)(C)C)N(C(C)CC)C1=O` (stereo not shown) [Compound 339, 2-t-butylimino-3-s-butyl-5-(o-ethylphenyl)-tetrahydro-1,3,5-thiadiazin-4-one], with 100%.
The same measure, in the same setting: then `CC(C)N=C1SCN(c2ccccc2C(C)C)C(=O)N1C(C)C` [Compound 342], with 100%.
In the case of `CC(C)c1ccccc1N1CSC(=NC(C)(C)C)N(C(C)C)C1=O` [Compound 343, 2-t-Butylimino-3-isopropyl-5-(o-isopropyl)-phenyl-tetrahydro-1,3,5-thiadiazin-4-one], the mortality at 400 ppm in assay [1] came to 100%.
For the compound `CCC(C)N1C(=O)N(c2ccccc2C(C)C)CSC1=NC(C)(C)C` (stereo not shown) [Compound 344], the mortality at 400 ppm in assay [1] is 100%.
`C=CCN1C(=O)N(c2ccc(OC)cc2)CSC1=NC(C)C` [Compound 350]: in assay [2], the mortality at 1000 ppm was 100%. In assay [1], this compound displayed a mortality at 400 ppm of 100%.
In the case of `CCCN1C(=O)N(c2ccc(OC)cc2)CSC1=NC1CCCCC1` [Compound 354], in assay [2], the mortality at 1000 ppm worked out at 100%. Besides, the mortality at 400 ppm in assay [1] came out at 100%.
The compound `COc1ccc(N2CSC(=NC(C)C)N(c3ccc(Cl)c(Cl)c3)C2=O)cc1` [Compound 359] gave a mortality at 1000 ppm in assay [2] of 100%.
In assay [1], `COc1ccccc1N1CSC(=NC(C)(C)C)N(C(C)C)C1=O` [Compound 360] displayed a mortality at 400 ppm of 100%.
`CCOc1ccc(N2CSC(=NC(C)(C)C)N(C(C)C)C2=O)cc1` [Compound 367] came in with a mortality at 1000 ppm in assay [2] of 100%. This compound gave a mortality at 400 ppm in assay [1] of 80%.
Regarding `CC(C)N=C1SCN(c2ccc(OC(C)C)cc2)C(=O)N1C` [Compound 370, 2-Isopropylimino-3-methyl-5-(p-isopropoxyphenyl)-tetrahydro-1,3,5-thiadiazin-4-one], in assay [2], the mortality at 1000 ppm stood at 100%.
For `CCN=C1SCN(c2ccc(OC(C)C)cc2)C(=O)N1CC` [Compound 371], the mortality at 1000 ppm in assay [2] was found to be 100%. This compound also had a mortality at 400 ppm in assay [1] of 75%.
Taken in the same sequence, the figures for `CC(C)N=C1SCN(c2ccc(OC(C)C)cc2)C(=O)N1C(C)C` [Compound 372, 2-isopropylimino-3-isopropyl-5-(p-isopropoxyphenyl)-tetrahydro-1,3,5-thiadiazin-4-one] were 100% and 60%.
For `CC(C)Oc1ccc(N2CSC(=NC(C)(C)C)N(C(C)C)C2=O)cc1` [Compound 373], in that order: 100% and 80%.
For `CCC(C)N1C(=O)N(c2ccc(OC(C)C)cc2)CSC1=NC(C)(C)C` (stereo not shown) [Compound 374, 2-t-butylimino-3-s-butyl-5-(p-isopropoxyphenyl)-tetrahydro-1,3,5-thiadiazin-4-one], the mortality at 1000 ppm in assay [2] was determined as 100%. This compound also gave a mortality at 400 ppm in assay [1] of 80%.
For `CN=C1SCN(c2ccc(C)cc2C)C(=O)N1C` [Compound 376], in that order: 100% and 60%.
Taken in the same sequence, the figures for `Cc1ccc(N2CSC(=NC(C)C)N(C)C2=O)c(C)c1` [Compound 377, 2-Isopropylimino-3-methyl-5-(2,4-dimethyl-phenyl)-tetrahydro-1,3,5-thiadiazin-4-one] were 100% and 100%.
For `Cc1ccc(N2CSC(=NC(C)C)N(C(C)C)C2=O)c(C)c1` [Compound 378, 2-isopropylimino-3-isopropyl-5-(2,4-dimethylphenyl)-tetrahydro-1,3,5-thiadiazin-4-one], in that order: 100% and 100%.
For `Cc1ccc(N2CSC(=NC(C)(C)C)N(C(C)C)C2=O)c(C)c1` [Compound 379, 2-t-butylimino-3-isopropyl-5-(2,4-dimethylphenyl)-tetrahydro-1,3,5-thiadiazin-4-one], in assay [2], the mortality at 1000 ppm stood at 100%. This compound registered a mortality at 400 ppm in assay [1] of 100%.
`CCC(C)N1C(=O)N(c2ccc(C)cc2C)CSC1=NC(C)(C)C` (stereo not shown) [Compound 380] displayed a mortality at 1000 ppm in assay [2] of 100%. Further, the mortality at 400 ppm in assay [1] came to 100%.
Consider `CC(C)N=C1SCN(c2cc(Cl)cc(Cl)c2)C(=O)N1Cc1ccccc1` [Compound 408, 2-Isopropylimino-3-benzyl-5-(3,5-dichloro-phenyl)-tetrahydro-1,3,5-thiadiazin-4-one], for which the mortality at 1000 ppm in assay [2] was determined as 100%.
Same read-out and setting: then `CCN1C(=O)N(c2ccc(Cl)c(Cl)c2)CSC1=NCC(C)C` [Compound 419], with 100%.
